According to PubChem BioAssay (NCI):
Several values for one entry are separate records, joined by “and”; a condition that tells them apart may be missing. Equal entries are not always repeated.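 Values below derive from 48-hour exposures of cells grown in 96-well plates, with endpoints linearly interpolated between the two concentrations bracketing the appropriate inhibition level. GI50 marks 50% less growth. Definition used: TGI = concentration required for complete inhibition of growth.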

What was measured:
Experiment in all cases: inhibition of tumour cell growth, NCI panel, 48 h
SF-295 CNS = system: SF-295 CNS
RXF 393 renal = system: RXF 393 renal
NCI-H226 lung = system: NCI-H226 lung
SW-620 colon = system: SW-620 colon
OVCAR-5 ovarian = system: OVCAR-5 ovarian
SK-MEL-28 melanoma = system: SK-MEL-28 melanoma
NCI/ADR-RES ovarian = system: NCI/ADR-RES ovarian
HT29 colon = system: HT29 colon
OVCAR-3 ovarian = system: OVCAR-3 ovarian
SF-268 CNS = system: SF-268 CNS

| Compound | GI50 (SF-295 CNS) | TGI (SF-295 CNS) | GI50 (RXF 393 renal) | TGI (RXF 393 renal) | GI50 (NCI-H226 lung) | TGI (NCI-H226 lung) | GI50 (SW-620 colon) | TGI (SW-620 colon) | GI50 (OVCAR-5 ovarian) | TGI (OVCAR-5 ovarian) | GI50 (SK-MEL-28 melanoma) | TGI (SK-MEL-28 melanoma) | GI50 (NCI/ADR-RES ovarian) | TGI (NCI/ADR-RES ovarian) | GI50 (HT29 colon) | TGI (HT29 colon) | GI50 (OVCAR-3 ovarian) | TGI (OVCAR-3 ovarian) | GI50 (SF-268 CNS) | TGI (SF-268 CNS) |
| --- | --- | --- | --- | --- | --- | --- | --- | --- | --- | --- | --- | --- | --- | --- | --- | --- | --- | --- | --- | --- |
| CCN(CC)CCNC(=O)c1c(C)[nH]c(/C=C2\C(=O)Nc3ccc(F)cc32)c1C | > 10 µM and 4.09 µM and 10.2 µM | > 10 µM and 8.23 µM and 24.1 µM | 1.19 µM and 1.45 µM and 1.38 µM | 8.47 µM and 4.56 µM and 4.37 µM | 5.22 µM and 5.72 µM and 8.46 µM | > 10 µM and 20 µM and 23.4 µM | 1.76 µM and 1.95 µM and 1.4 µM | 7.67 µM and 5.22 µM and 4.22 µM | 4.1 µM and 2.35 µM and 3.57 µM | > 10 µM and 8.72 µM and 18.1 µM | 2.47 µM and 3 µM and 1.57 µM | > 10 µM and 5.89 µM and 3.31 µM | > 10 µM and 4.48 µM and 5.31 µM | > 10 µM and 13.4 µM and 17.9 µM | 1.07 µM and 1.3 µM and 1.54 µM | 5.21 µM and 4.99 µM and 3.69 µM | > 10 µM and 3.41 µM and 3.33 µM | > 10 µM and 6.34 µM and 7.54 µM | > 10 µM and 2.73 µM and 4.57 µM | > 10 µM and 6.09 µM and 16.9 µM |
| CCC(=C(c1ccc(OCCCN(C)C)cc1)c1ccc(OCCCN(C)C)cc1)c1ccc(Cl)cc1 | 2.35 µM | 4.61 µM | 0.977 µM | 3.4 µM | 2.65 µM | 5.57 µM | 0.314 µM | 0.648 µM | 2.48 µM | 4.8 µM | 0.324 µM | 0.652 µM | 1.95 µM | 4.14 µM | 0.395 µM | 0.966 µM | 0.429 µM | 1.08 µM | 1.04 µM | 2.72 µM |
| C=CCSc1nc2ccccc2c(=O)n1Cc1ccco1 |  | > 100 µM |  | > 100 µM |  | > 100 µM |  | > 100 µM |  | > 100 µM |  | > 100 µM |  | > 100 µM |  | > 100 µM |  | > 100 µM |  | > 100 µM |
| NC(=O)c1cccc(Nc2nccc(Nc3cccc(F)c3)n2)c1 | 9.82 µM | > 25 µM | 3.72 µM | 14.6 µM | 4.74 µM | > 21.7 µM | 7.11 µM | > 24 µM | 8.07 µM | > 25 µM | 8.71 µM | > 25 µM | 8.75 µM | > 25 µM | 6.98 µM | > 25 µM | 10 µM | > 25 µM | 11.7 µM | > 25 µM |
| CCCCCCCCCCCCCCCCCCNC(=O)[C@H]1CSC(c2cccs2)N1 (some centres undefined) | 5.58 µM | > 50 µM | 0.973 µM | 1.72 µM | 1.05 µM | 2.01 µM | 0.881 µM | 1.91 µM | 1.17 µM | 2.57 µM | 0.725 µM | 1.43 µM | 1.06 µM | 2.31 µM | 1.46 µM | 4.2 µM | 1.48 µM | 3.97 µM | 1.11 µM | 2.34 µM |
| C=C1CC2(OC1=O)C(=O)N(CCCN1C(=O)C3(CC(=C)C(=O)O3)c3ccccc31)c1ccccc12 (centres undefined) | 13.2 µM | 26 µM | 1.32 µM | 2.83 µM | 2.01 µM | 6.64 µM | 0.594 µM | 2.08 µM | 2.07 µM | 4.55 µM | 1.92 µM | 3.61 µM | 2.52 µM | 9.44 µM | 1.85 µM | 4.91 µM | 0.571 µM | 1.83 µM | 3.32 µM | 12 µM |
| OB1OCc2cc(/C=C/c3cccc(C(F)(F)F)c3)ccc21 | 0.432 µM | 16.1 µM | 2.23 µM | 11.4 µM | 2.52 µM | 56.4 µM | 1.57 µM | > 100 µM | 5.15 µM | > 100 µM | 18.8 µM | > 100 µM | 0.544 µM | 23.9 µM | 1.44 µM | > 100 µM | 1.37 µM | 17.8 µM | 0.564 µM | 48.1 µM |
| Cc1cc2c(Br)cc(Br)c(O)c2nc1C(=O)c1ccccc1 |  | > 56.4 µM |  | > 83.6 µM |  | > 79.2 µM |  | > 100 µM |  | > 68.5 µM |  | > 100 µM |  | > 100 µM |  | > 79.1 µM |  | > 79 µM |  | > 100 µM |
| Cc1cc(Nc2nc(SCc3ccc(C(=O)Nc4ccc(F)cc4N)cc3)nn3cccc23)n[nH]1 | 0.354 µM | 25.9 µM | 0.301 µM | 13 µM | 2.7 µM | 20.5 µM | 0.426 µM | > 100 µM | 0.657 µM | > 100 µM | 2.83 µM | 51.8 µM | 1.98 µM | > 100 µM | 0.322 µM | 10.1 µM | 0.202 µM | 49.1 µM | 1.12 µM | > 100 µM |
| COc1ccccc1/C=C/C(=O)/C=C/c1ccccc1O | 1.99 µM | 5.23 µM |  | 0.763 µM | 1.71 µM | 4.12 µM | 0.392 µM | 1.47 µM | 2.16 µM | 4.39 µM | 1.56 µM | 3.72 µM | 2.86 µM | 15 µM | 0.853 µM | 2.75 µM | 0.314 µM | 1 µM | 1.34 µM | 6.13 µM |
| CCCCCCCCCCCC[n+]1ccccc1 (tested in a mixture with another compound) | 0.712 µM | 2.52 µM | 0.682 µM | 4.44 µM | 1.72 µM | 10.4 µM | 1.57 µM | 10.5 µM | 1.03 µM | 5.85 µM | 1.35 µM | 3.53 µM | 14.4 µM | 52.2 µM | 0.28 µM | 4.21 µM | 0.722 µM | 2.44 µM | 1.2 µM | 3.44 µM |
| O=C(/C=C/c1ccccc1)CC(c1ccccc1)N1CCOCC1 (centres undefined) | 2.7 µM | 10.5 µM | 1.61 µM | 3.03 µM | 5.39 µM | 24.2 µM | 2.33 µM | 4.91 µM | 9.79 µM | 22.1 µM | 13.8 µM | 30 µM | 3.37 µM | 16.3 µM | 3.7 µM | 16.7 µM | 3.71 µM | 11.6 µM | 5.07 µM | 19.3 µM |
